Data from US12441742B2, “Naphthyridine compounds as inhibitors of KRAS” (Incyte Corporation, priority 2021, dated 2025).
pIC50: −log10 of the molar value.

Tests used:
[1] = molecular target: T1, KRAS G12C (Homo sapiens, UniProt P01116, G12C); assay: KRAS_G12C cellular pERK HTRF assay; type: cell-based; parameters: host or cells: MIA PaCa-2; conditions: MIA PaCa-2 (KRAS G12C), 4 hours; read-out: G12C_pERK (KRAS_G12C pERK assay IC50)
Procedure: MIA PaCa-2 (KRAS G12C; ATCC® CRL-1420), A427 (KRAS G12D; ATCC® HTB53), HPAF-II (KRAS G12D; ATCC® CRL-1997) and NCI-H838 (KRAS WT; ATCC® CRL-5844) cells are purchased from ATCC and maintained in RPMI 1640 media supplemented with 10% FBS (Gibco/Life Technologies). The cells are plated at 5000 cells per well (8 uL) into Greiner 384-well low volume, flat-bottom, tissue culture treated white plates and incubated overnight at 37° C., 5% CO2. The next morning, test compound stock solutions are diluted in media at 3x the final concentration, and 4 uL are added to the cells. The plate is mixed by gentle rotation for 30 seconds (250 rpm) at room temperature. The cells are incubated with the KRAS G12C and G12D compounds for 4 hours or 2 hours respectively at 37° C., 5% CO2.
4 uL of 4x lysis buffer with blocking reagent (1:25) (Cisbio) are added to each well and plates are rotated gently (300 rpm) for 30 minutes at room temperature. 4 uL per well of Cisbio anti Phospho-ERK 1/2 d2 is mixed with anti Phospho-ERK 1/2 Cryptate (1:1) are added to each well, mixed by rotation and incubated overnight in the dark at room temperature. Plates are read on the Pherastar plate reader at 665 nm and 620 nm wavelengths. IC50 determination is performed by fitting the curve of inhibitor percent inhibition versus the log of the inhibitor concentration using the GraphPad Prism 7 software.

[2] = molecular target: T1, KRAS G12C; assay: KRAS_G12C GDP-GTP exchange assay (bodipy-GDP/GppNHp, SOS1); type: biochemical; conditions: bodipy-loaded KRAS G12C, 2 hours pre-incubation, 2 hours exchange; read-out: G12C_exchange (KRAS_G12C exchange assay IC50)
Procedure: The inhibitor potency of the exemplified compounds was determined in a fluorescence based guanine nucleotide exchange assay, which measures the exchange of bodipy-GDP (fluorescently labeled GDP) for GppNHp (Non-hydrolyzable GTP analog) to generate the active state of KRAS in the presence of SOS1 (guanine nucleotide exchange factor). Inhibitors were serially diluted in DMSO and a volume of 0.1 μL was transferred to the wells of a black low volume 384-well plate. 5 μL/well volume of bodipy-loaded KRAS G12C diluted to 5 nM in assay buffer (25 mM Hepes pH 7.5, 50 mM NaCl, 10 mM MgCl2 and 0.01% Brij-35) was added to the plate and pre-incubated with inhibitor for 2 hours at ambient temperature. Appropriate controls (enzyme with no inhibitor or with a G12C inhibitor (AMG-510)) were included on the plate. The exchange was initiated by the addition of a 5 μL/well volume containing 1 mM GppNHp and 300 nM SOS1 in assay buffer. The 10 μL/well reaction concentration of the bodipy-loaded KRAS G12C, GppNHp, and SOS1 were 2.5 nM, 500 uM, and 150 nM, respectively. The reaction plates were incubated at ambient temperature for 2 hours, a time estimated for complete GDP-GTP exchange in the absence of inhibitor. Internal compounds with confirmed binding were used as positive controls in the assay plates. Fluorescence intensities were measured on a PheraStar plate reader instrument (BMG Labtech) with excitation at 485 nm and emission at 520 nm.
Either GraphPad prism or XLfit was used to analyze the data. The IC50 values were derived by fitting the data to a four parameter logistic equation producing a sigmoidal dose-response curve with a variable Hill coefficient. Prism equation: Y=Bottom+(Top−Bottom)/(1+10^((Log IC50−X)*Hill slope)); XLfit equation: Y=(A+((B−A)/(1+((X/C)^D)))) where X is the logarithm of inhibitor concentration and Y is the response.

T1 sequence (P01116 1-188 isoform P01116-2 G12C): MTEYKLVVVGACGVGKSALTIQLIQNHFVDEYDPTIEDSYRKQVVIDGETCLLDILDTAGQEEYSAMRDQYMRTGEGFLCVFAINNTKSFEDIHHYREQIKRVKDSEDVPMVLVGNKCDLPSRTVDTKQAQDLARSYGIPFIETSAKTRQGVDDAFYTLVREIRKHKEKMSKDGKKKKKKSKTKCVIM

| Structure (SMILES) | pIC50 [1] | pIC50 [2] |
| --- | --- | --- |
| CCN(C)C1CN(c2nc3c(F)c(-c4ccc(F)c5cccnc45)ncc3c3c2nnn3[C@H]2CCN(C(=O)/C=C/CF)[C@H](CC#N)C2)C1 [Example 12, 2-((2S,4S)-4-(4-(3-(ethyl(methyl)amino)azetidin-1-yl)-6-fluoro-7-(5-fluoroquinolin-8-yl)-1H-[1,2,3]triazolo[4,5-c][1,6]naphthyridin-1-yl)-1-((E)-4-fluorobut-2-enoyl)piperidin-2-yl)acetonitrile] | 6.00 to 7.00 | ≥ 7.00 |
| C=C(F)C(=O)N1CC[C@H](n2nnc3c(N4CC(N(C)CC)C4)nc4c(F)c(-c5n[nH]c6cc(C)c(C)cc56)ncc4c32)C[C@H]1CC#N [Example 13, 2-((2S,4S)-4-(7-(5,6-dimethyl-1H-indazol-3-yl)-4-(3-(ethyl(methyl)amino)azetidin-1-yl)-6-fluoro-1H-[1,2,3]triazolo[4,5-c][1,6]naphthyridin-1-yl)-1-(2-fluoroacryloyl)piperidin-2-yl)acetonitrile] |  | ≥ 7.00 |
| CCN(C)C1CN(c2nc3c(F)c(-c4cccc5cccc(C#N)c45)ncc3c3c2nnn3[C@H]2CCN(C(=O)/C=C/CF)[C@H](CC#N)C2)C1 [Example 15, 8-(1-((2S,4S)-2-(cyanomethyl)-1-((E)-4-fluorobut-2-enoyl)piperidin-4-yl)-4-(3-(ethyl(methyl)amino)azetidin-1-yl)-6-fluoro-1H-[1,2,3]triazolo[4,5-c][1,6]naphthyridin-7-yl)-1-naphthonitrile] | ≥ 7.00 | ≥ 7.00 |
| C=C(F)C(=O)N1CC[C@H](n2nnc3c(N4CC(N(C)CC)C4)nc4c(F)c(-c5cccc6cccc(C#N)c56)ncc4c32)C[C@H]1CC#N [Example 14, 8-(1-((2S,4S)-2-(cyanomethyl)-1-(2-fluoroacryloyl)piperidin-4-yl)-4-(3-(ethyl(methyl)amino)azetidin-1-yl)-6-fluoro-1H-[1,2,3]triazolo[4,5-c][1,6]naphthyridin-7-yl)-1-naphthonitrile] | 6.00 to 7.00 | ≥ 7.00 |
